The subject of data set [1] is WT E14 mES cells. Description: Clonogenic survival assay, mES cells. The format is cell-based. The conditions noted are these: Mus musculus, read-out: IC50 (clonogenic survival). The text has this: (§1) Human mammary epithelial cell lines used included non-tumorigenic diploid MCF-10A, HMEC-hTERT and tumorigenic MDA-MB-468 (basal) and MCF-7 (luminal). […] Blood samples were obtained from normal donor participants. The participants provided written informed consent to IRB protocol #95–054 approved by the Institutional Review Board at MSKCC. The original signed consent is then sent to the research participant’s medical record and a copy of the consent is given to the participant. The EBV-transformed B-lymphocyte cell line (EBV-BL) was generated by transformation of peripheral blood mononuclear cells (PBMC) with the B95.8 strain of EBV, as previously described. Primary T cells were generated from PBMC from two normal donors by non-specific activation with phytohemagglutinin and cultured in RPMI1640 and human serum AB for 4–14 days before use. E14 mES cell line was provided by M. Hooper, Brca1^-/- 236.44 mES cell line was provided by B. H. Koller, Brca2^lex1/lex2 mES cell line was provided by P. Hasty and Lexicon Genetics. E14 wild-type, Brca1^-/- 236.44, and Brca2^lex1/lex2 mES cell lines were cultured in standard ES media. Brca1^-/- 236.44 cells express a BRCA1 peptide deleted for sequences encoded by exon 11 [52], while Brca2^lex1/lex2 cells express a BRCA2 peptide deleted for the terminal exon 27 [53]. […] Veliparib and BSI-201 were purchased from Chemie Tek. The compounds were dissolved in DMSO and PBS. For clonogenic survival assays, MCF-10A (1000 cells), HMEC-hTERT (1000 cells), MDA-MB-468 (1500 cells) and mouse ES cell (2000 cells) were seeded, vehicle control or inhibitors were added at the indicated concentration 24 hours after seeding and changed every three days for continuous treatment. At 7–14 days, colonies were fixed with methanol and stained with Giemsa. For EBV-BL (6 × 10^6) and primary T cells (3.6 × 10^6) were continuously exposed to the indicated concentration of drug for 10 days at 0.6 × 10^6 cells/ml. Viable cells were scored by trypan blue exclusion.

Data set [2] relates to Brca1^-/- 236.44 mES cells. Description: Clonogenic survival assay, mES cells. In kind it is cell-based, mouse. The conditions noted are these: for IC50: Mus musculus, read-out: IC50 (clonogenic survival).
Text: as §1

The subject of data set [3] is Brca2^lex1/lex2 mES cells. The data set can be described thus: Clonogenic survival assay, mES cells. The format is cell-based, mouse. The following applies: for IC50: Mus musculus, read-out: IC50 (clonogenic survival).
Text: as §1

For data set [4], the system named is cellular PARP activity in EBV-BL. The data set can be described thus: Cellular PARP activity assay (PAR levels, HT PARP In vivo Pharmacodynamic Assay). In kind it is cell-based, human. On the procedure:
Cellular PARP activity was determined by measuring net PAR expression using HT PARP In vivo Pharmacodynamic Assay (Trevigen) as specified by the manufacturer. PAR levels in samples were calculated using standard curves and normalized using protein concentration. Protein concentration was measured with Lowry protocol using RC DC Protein Assay Kits (Bio-Rad).

Data set [5] relates to MCF-10A. The data set can be described thus: Clonogenic survival assay. The format is cell-based, human. On the procedure:
Clonogenic survival was assessed by colony counting at 9 days. […] Viable cells were scored and enumerated by trypan blue exclusion at 7 days. Means with SD are shown (MCF-10A: n = 3, primary T cell 1: n = 2). […] Fold increases of SCE per chromosome compared with no treatment or 0.5 μM cisplatin are shown for each cell type. Approximately 50 metaphases were counted for each cell. Error bars depict the mean with SD. Asterisks designate statistical significance for unpaired t-test at P < 0.0001. C. […] One hundred metaphases were counted for each exposure. Fold increases of chromatid-type aberrations per chromosome compared with no treatment or 0.5 μM cisplatin are shown for each cell type. The y-axis is the number of total chromatid-type aberrations per chromosome for each metaphase counted. Error bars indicate mean with SEM. The P-values were calculated using unpaired t-test.
(§2) Human mammary epithelial cell lines used included non-tumorigenic diploid MCF-10A, HMEC-hTERT and tumorigenic MDA-MB-468 (basal) and MCF-7 (luminal). […] Blood samples were obtained from normal donor participants. The participants provided written informed consent to IRB protocol #95–054 approved by the Institutional Review Board at MSKCC. The original signed consent is then sent to the research participant’s medical record and a copy of the consent is given to the participant. The EBV-transformed B-lymphocyte cell line (EBV-BL) was generated by transformation of peripheral blood mononuclear cells (PBMC) with the B95.8 strain of EBV, as previously described. Primary T cells were generated from PBMC from two normal donors by non-specific activation with phytohemagglutinin and cultured in RPMI1640 and human serum AB for 4–14 days before use. E14 mES cell line was provided by M. Hooper, Brca1^-/- 236.44 mES cell line was provided by B. H. Koller, Brca2^lex1/lex2 mES cell line was provided by P. Hasty and Lexicon Genetics. E14 wild-type, Brca1^-/- 236.44, and Brca2^lex1/lex2 mES cell lines were cultured in standard ES media. Brca1^-/- 236.44 cells express a BRCA1 peptide deleted for sequences encoded by exon 11 [52], while Brca2^lex1/lex2 cells express a BRCA2 peptide deleted for the terminal exon 27 [53]. Olaparib was synthesized in the MSKCC Organic chemistry core facility. Veliparib and BSI-201 were purchased from Chemie Tek. The compounds were dissolved in DMSO and PBS. For clonogenic survival assays, MCF-10A (1000 cells), HMEC-hTERT (1000 cells), MDA-MB-468 (1500 cells) and mouse ES cell (2000 cells) were seeded, vehicle control or inhibitors were added at the indicated concentration 24 hours after seeding and changed every three days for continuous treatment. At 7–14 days, colonies were fixed with methanol and stained with Giemsa. For EBV-BL (6 × 10^6) and primary T cells (3.6 × 10^6) were continuously exposed to the indicated concentration of drug for 10 days at 0.6 × 10^6 cells/ml. Viable cells were scored by trypan blue exclusion.

The test system of data set [6] is EBV-BL. The data set can be described thus: Survival, trypan blue exclusion test of cell viability. The format is cell-based, human. The conditions noted are these: Homo sapiens, 240 h, continuous exposure 10 days, trypan blue exclusion.
Text: as §1

For data set [7], the system named is EBV-BL. Description: Sister chromatid exchange (SCE) assay, BrdU differential staining. In kind it is cell-based, human.
Text: as §2
(§3) To prepare metaphase spreads, exponentially growing cells were treated with 0.1–0.3 μg/ml of colcemid for 1–6 hr. Cells were collected and incubated in hypotonic solution (0.56% KCl), fixed in methanol: acetic acid (3:1), spotted to slides and air-dried. To measure chromosomal aberrations, the slides were stained with 2% Giemsa/Sorensen’s buffer. To visualize SCEs, the doubling time for each cell type was determined. Cells were incubated with 10 μM BrdU for two cell cycles. After metaphase spreads were prepared, the slides were treated with 0.5 μg/ml Hoechst 33258. The slides were exposed to black light for 20–60 min, incubated at 60°C for 2 hr, and stained in 4–10% Giemsa/Sorensen’s buffer.

Data set [8] relates to MCF-10A. The description is as above. The format is cell-based, human.
Text: as §2, §3

The subject of data set [9] is BRCA-deficient mES cells. Details: method as in PMID 15829967. The conditions noted are these: cited from earlier work.
For data set [10], the system named is primary T cell 1. Description: Chromosomal aberrations on metaphase spreads (Giemsa). The format is cell-based, human. The following applies: 0.5 μM cisplatin alone, 24 hr. Here is the method: as §3
Data set [11] has as its system primary T cell 1. Description: Survival, trypan blue exclusion. The format is cell-based, human. The conditions noted are these: first 24 hr, trypan blue exclusion at 7 days, read-out: IC50 (survival), cisplatin alone. Here is the method:
A. […] Viable cells were scored and enumerated by trypan blue exclusion at 7 days. […] Approximately 50 metaphases were counted for each cell. Error bars depict the mean with SD. Asterisks designate statistical significance for unpaired t-test at P < 0.0001. C. […] One hundred metaphases were counted for each exposure. […] The y-axis is the number of total chromatid-type aberrations per chromosome for each metaphase counted. Error bars indicate mean with SEM. The P-values were calculated using unpaired t-test.

For data set [12], the system named is primary T cell 1. Description: Sister chromatid exchange (SCE) assay, BrdU differential staining. The format is cell-based, human. The following applies: 0.5 μM cisplatin alone, first 24hr.
Text: as §2, §3

Setting [13] is: Homo sapiens, continuous exposure, clonogenic survival assay, read-out: IC50 (cell survival).

Values joined by “and” are separate entries in the source; they are usually repeats but may differ in a detail not shown here. Equal values may be shown once. Read-outs that look alike come from different tables or passages of the source.

One may read the IC50 as the point on the concentration scale where inhibition reaches its midpoint. Take `NC(=O)c1ccc(I)c([N+](=O)[O-])c1` [BSI-201]: the IC50 is 111 µM in data set [1] (wild-type E14 mES cells); 74 µM in data set [2] (Brca1^-/- 236.44 mES cells); 70 µM in data set [3] (Brca2^lex1/lex2 mES cells); 56 µM in [5] (setting [13]); 48.9 µM in data set [6] (EBV-BL, read-out: IC50 (cell survival)). In addition, in [2] (ratio of IC50, wild-type / Brca1^-/- 236.44), the “enhanced sensitivity of cells lacking wild-type BRCA1 vs wild-type cells” value is 1.5 fold. Also, the “enhanced sensitivity of cells lacking wild-type BRCA2 vs wild-type cells” value in data set [3] (ratio of IC50, wild-type / Brca2^lex1/lex2) was 1.6 fold. Further, the “decrease of PARP activity” value in data set [4] (EBV-BL, 24 hr, BSI-201 treated, vs untreated cells) was ~ 60%. In addition, the “Mean no. SCE / metaphase ± SD” value in data set [7] (20 μM) stood at 8.4 ± 3.6; in data set [7] (40 μM), 9.4 ± 2.9; in data set [7] (80 μM), 16.6 ± 4.2; in [8] (20 μM) it was 7.9 ± 2.9; in data set [8] (40 μM), 8.6 ± 2.9; in data set [8] (80 μM) it was 9.4 ± 2.6.

For the compound `C[C@]1(c2nc3c(C(N)=O)cccc3[nH]2)CCCN1` [veliparib], the concentration for half-maximal inhibition (IC50) in [1] was determined as 1.6 µM; in [2], 0.0097 µM; in [3], 0.171 µM; in [5] (setting [13]), 69.1 µM; in data set [6] (read-out: IC50 (cell survival), EBV-BL) it was 42.5 µM. Moreover, the “decrease of PARP activity” value in [4] was ~ 98% and > 99%. The “Mean no. SCE / metaphase ± SD” value in data set [7] (1.5 μM) was 18.7 ± 4.6; in data set [7] (10 μM) it was 32.2 ± 7.2; in [8] (1.5 μM), 26.9 ± 6.6; in data set [8] (10 μM) it was 51.3 ± 9.4.

As to `O=C(c1cc(Cc2n[nH]c(=O)c3ccccc23)ccc1F)N1CCCNCC1` [KU0058948], the “sensitivity of BRCA-deficient mES cells” value in [9] was “marked hypersensitivity”.

As for `O=C1CCC(=O)N1c1cc(Cc2n[nH]c(=O)c3ccccc23)ccc1F` [KU0058684], in data set [9], the “sensitivity of BRCA-deficient mES cells” value was “marked hypersensitivity”.

Consider `N.N.[Cl][Pt][Cl]` [cisplatin], for which, in data set [10], the “Fold increase of chromatid-type aberrations per chromosome compared with no treatment” value stood at 2 fold and the “total chromatid-type aberrations / metaphase (mean ± SEM)” value was 0.38 ± 0.07. In data set [10] (100 metaphases), this compound yielded a chromatid-type gap/break of 36, a chromatid-type radial chromosome of 1, a chromatid-type telomere association of 0 and a chromosome-type dicentric of 1. In [10] (100 metaphases), this compound returned a chromosome-type gap/break of 6 and a total chromatid-type aberrations of 38. In data set [11], the IC50 came to 1.74 µM. For the same compound, the half-maximal inhibitory concentration (IC50) in data set [5] (cisplatin first 30 hr, colony counting at 9 days, read-out: IC50 (survival), cisplatin alone) was 3.4 µM. In data set [12], the “Fold increase of SCE per chromosome compared with no treatment” value came out at 3.8 fold, the “Mean no. SCE / chromosome ± SD” value is recorded as 0.79 ± 0.23 and the “Mean no. SCE / metaphase ± SD” value is on record as 36.6 ± 10.8. In data set [8] (0.5 μM cisplatin alone, 30 hr), the “Fold increase of SCE per chromosome compared with no treatment” value amounted to 6.3 fold, the “Mean no. SCE / chromosome ± SD” value was determined as 1.03 ± 0.12 and the “Mean no. SCE / metaphase ± SD” value was determined as 47.7 ± 5.5.

These data come from PMC4948780, “PARP Inhibitors in Clinical Use Induce Genomic Instability in Normal Human Cells” (PLoS ONE, 2016).
